Laboratory results: PubChem BioAssay (NCI)
Several values for one entry are separate records, joined by “and”; a condition that tells them apart may be missing. Equal entries are not always repeated.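 Each compound was tested at five concentrations against cells in 96-well plates for 48 hours. Abbreviation: GI50, concentration required for 50% inhibition of growth. TGI is the concentration that stops growth completely.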

Columns and labels:
Experiment in all cases: NCI anticancer screen, dose series, 48 h
U251 CNS = test system: U251 CNS
OVCAR-3 ovarian = test system: OVCAR-3 ovarian
SNB-75 CNS = test system: SNB-75 CNS
M14 melanoma = test system: M14 melanoma
OVCAR-8 ovarian = test system: OVCAR-8 ovarian
RXF 393 renal = test system: RXF 393 renal
NCI-H226 lung = test system: NCI-H226 lung
K-562 leukemia = test system: K-562 leukemia
NCI-H23 lung = test system: NCI-H23 lung
HOP-92 NSCLC = test system: HOP-92 NSCLC

| Compound | GI50 (U251 CNS) | TGI (U251 CNS) | GI50 (OVCAR-3 ovarian) | TGI (OVCAR-3 ovarian) | GI50 (SNB-75 CNS) | TGI (SNB-75 CNS) | GI50 (M14 melanoma) | TGI (M14 melanoma) | GI50 (OVCAR-8 ovarian) | TGI (OVCAR-8 ovarian) | GI50 (RXF 393 renal) | TGI (RXF 393 renal) | GI50 (NCI-H226 lung) | TGI (NCI-H226 lung) | GI50 (K-562 leukemia) | TGI (K-562 leukemia) | GI50 (NCI-H23 lung) | TGI (NCI-H23 lung) | GI50 (HOP-92 NSCLC) | TGI (HOP-92 NSCLC) |
| --- | --- | --- | --- | --- | --- | --- | --- | --- | --- | --- | --- | --- | --- | --- | --- | --- | --- | --- | --- | --- |
| Cc1cccc(Cc2cnc(NC(=O)CCCOc3ccc(Cl)cc3)s2)c1 | 4.88 µM | > 100 µM | 3.4 µM | > 100 µM | 2.66 µM | > 100 µM | 3.68 µM | > 100 µM | 27.3 µM | > 100 µM | 9.58 µM | > 100 µM | 59.3 µM | > 100 µM | 3.84 µM | > 100 µM | 28 µM | > 100 µM | 34.3 µM | > 100 µM |
| Cc1c2cc[n+](C)cc2c(C)c2c1[nH]c1ccc(Oc3ccccc3)cc12 |  | > 100 µM |  | > 37.6 µM and 31.7 µM | 0.549 µM | 4.36 µM and 5.27 µM |  | > 61.5 µM and 40.1 µM |  | > 100 µM | > 100 µM and 11 µM | > 100 µM and 59.4 µM | 0.797 µM | 28 µM and 8.75 µM |  | > 24 µM | 1.73 µM |  |  | 7.37 µM and 6.77 µM |
| COc1ccc(C[C@H](N)C(=O)N[C@@H]2[C@@H](CO)OC(n3cnc4c(N(C)C)ncnc43)[C@@H]2O)cc1 (stereo partly specified) | 0.136 µM | 0.507 µM |  | 0.535 µM | 0.143 µM | 1.23 µM | 0.647 µM | 1.4 µM | 0.276 µM | 1.13 µM | 0.216 µM | 0.831 µM | 0.497 µM | 1.27 µM | 0.293 µM | 1.46 µM | 0.553 µM | 1.82 µM | 0.12 µM | 0.51 µM |
| O=C(/C=C/c1ccc(OCC(=O)N2CCN(c3ccccc3)CC2)cc1)c1ccccc1 |  | 38 µM |  | > 100 µM |  | > 78.9 µM |  | > 100 µM |  | > 67.5 µM |  | 51.6 µM |  | > 60.4 µM |  | > 43 µM |  | 85.6 µM |  | > 100 µM |
| Nc1ccc2ncc(Nc3ccc(Cl)c(Cl)c3)nc2c1 |  | 80.1 µM |  | 40.1 µM |  | 59.4 µM |  | 94.1 µM |  | 83.3 µM |  | 55.2 µM |  | 62.6 µM |  | > 100 µM |  | 47.9 µM |  | 52.3 µM |
| O=C(c1ccccc1)c1ccc(N2C(=O)C3C4c5ccccc5C(/C=C/C(=O)c5ccccn5)(c5ccccc54)C3C2=O)cc1 (stereo unspecified) | 2.08 µM | 4.62 µM | 1.83 µM | 3.85 µM | 0.94 µM | > 100 µM | 3.4 µM | > 100 µM | 2.56 µM | > 100 µM | 1.56 µM | 3.07 µM | 2.06 µM | 4.48 µM | 1.77 µM | > 100 µM | 2.05 µM | 5.09 µM | 1.8 µM | 7.13 µM |
| CCOC(=O)c1c(/C=N\Nc2ccccc2)nc2ccccc2c1-c1ccccc1 |  | > 100 µM |  | > 100 µM |  | > 100 µM |  | > 100 µM |  | > 100 µM |  | > 100 µM |  | > 100 µM |  | > 100 µM |  | > 100 µM |  | > 100 µM |
| O=C1OC(c2ccccc2)=N/C1=C\c1ccc(N(CCCl)CCCl)cc1 |  | > 100 µM |  | > 100 µM |  | > 100 µM |  | > 100 µM |  | > 100 µM |  | > 100 µM |  | > 100 µM |  | > 100 µM |  | > 100 µM |  | > 84.6 µM |
| O=C(Nc1ccccc1)Oc1ccccc1C1CCCCC1 |  | 30.7 µM |  | 34.7 µM |  | 39.9 µM |  | 56.7 µM |  | > 100 µM |  | 21.9 µM |  | 37.6 µM |  | 50.3 µM |  | 47.1 µM |  | 31.3 µM |
| Cc1c(C(=O)C/C(=N/NC(=O)CC#N)C(N)=O)[n+](=O)c2ccccc2n1[O-] |  | > 100 µM |  | 61.8 µM |  | > 100 µM |  | > 100 µM |  | > 100 µM |  | > 100 µM |  | > 100 µM |  | > 100 µM |  | > 100 µM |  | > 100 µM |
| CC1=CC(=O)N2[C@H](OC[C@@H]2C(C)C)O1 |  | > 100 µM |  | > 100 µM |  | > 100 µM |  | > 100 µM |  | > 100 µM |  | > 100 µM |  | > 100 µM |  | > 100 µM |  | > 100 µM |  | > 100 µM |
| Cn1c(=O)c(Oc2ccc(F)cc2F)cc2cnc(NC3CCC(O)CC3)nc21 (stereo unspecified) | > 25 µM | > 25 µM | > 25 µM | > 25 µM | > 25 µM | > 25 µM | > 25 µM | > 25 µM | > 25 µM | > 25 µM | > 25 µM | > 25 µM | > 25 µM | > 25 µM | > 25 µM | > 25 µM | > 25 µM | > 25 µM | 0.779 µM | 19.3 µM |
| CCOC(=O)C1=C(O)c2c(OC)ccc(OC)c2C(=O)C1=O |  | > 100 µM |  | > 100 µM |  | > 100 µM |  | > 100 µM |  | > 100 µM |  | > 100 µM |  | > 100 µM |  | > 100 µM |  | > 100 µM |  | > 100 µM |
| Nc1ccc(N)c2c1C(=O)c1cccc([N+](=O)[O-])c1C2=O | 2.85 µM | > 100 µM | 5.19 µM | > 100 µM | 2.13 µM | 24.5 µM | 3.37 µM | > 100 µM | 2.67 µM | 19.7 µM | 7.16 µM | 54.9 µM | 0.312 µM |  | 5.45 µM | > 100 µM | 0.44 µM | 2.73 µM | 16.3 µM | > 100 µM |
